According to patent US20080064027A1, “TEL/Etv6-mediated inhibition of cell proliferation” (priority 2002, published 2008):
Entries after “also recorded” stand apart in the source; their conditions may differ.

Tests used:
[1] = test system: Stat3 transcriptional activity; experiment: Stat3 luciferase reporter assay with transfected TEL or TEL mutants; format: cell-based
Description: In brief, TEL- or control, pcDNA3.1-transfected Stat3ERA375 cells, treated with 4HT were cultured in the presence or absence of Trichostatin A (TSA; 250 nM), a general HDAC inhibitor, essentially as described above.
Briefly, Stat3-ER-A375 cells and HEK 293 cells were transfected with the different TEL mutants, a Stat3 reporter plasmid and a Renilla plasmid.

[2] = test system: Stat3-ER-expressing A375 cells; experiment: Cell proliferation after siRNA transfection; format: cell-based
From the text: This Example follows cell proliferation of Stat3-ER-expressing A375 cells treated with 4HT or a combination of 4HT and OSM, then cell proliferation in the absence or in the presence of siRNA to C/EBPd.
The following 21-mer oligoribonucleotide pairs were used:
This Example follows cell proliferation of Stat3-ER-expressing A375 cells treated with 4HT or a combination of 4HT and OSM, and in the absence or in the presence of siRNA to TEL.

C/EBPdelta mRNA = experiment: C/EBPdelta expression (quantitative PCR); format: cell-based
Description: A LacZ siRNA was used as control. The designed RNA oligonucleotides were ‘blasted’ against the GENBANK/EMBL databank to ensure gene specificity. The RNA oligonucleotides were obtained commercially. Transfection with expression vectors was carried out 1 day after the siRNA transfection using Effectene.

TEL [3] = experiment: TEL protein level by Western blotting; format: cell-based; conditions: 4HT or 4HT/OSM treated; relative to control LacZ siRNA
Description: Protein analysis was carried out by Western blotting. In brief, cells were harvested in NP40 extraction buffer (50 mM Tris (pH 7.5), 1 mM EGTA, 5 mM EDTA, 120 mM NaCl, 1% NP40, 2 mM sodium orthovanadate, 50 mM sodium fluoride, 20 mM ? -glycerophosphate, 10 μg/ml leupeptin, 10 μg/ml aprotinin, and 0.5 mM phenylmethylsulfonyl fluoride) for 5 min on ice. The lysates were clarified by centrifugation and protein concentrations were determined using the Bio-Rad protein assay reagent (Bio-Rad Laboratories Gmbh, Munich, Germany). For immunoprecipitaton, equal amounts of proteins were incubated with Stat3 (C-20) from Santa Cruz Biotechnology (Santa Cruz, Calif.) for 1 hr. Following SDS-polyacrylamide gel eletrophoresis (SDS-PAGE), proteins were blotted onto polyvinylidene difluoride membranes (Boehringer Mannheim, Mannheim, Germany). After blocking with 10% horse serum (Life Technologies, Inc.) in 50 mM Tris pH 7.5, 150 mM NaCl, 0.05% Tween 20, filters were probed with specific antibodies; c-TEL, Stat3 (C-20) from Santa Cruz Biotechnology (Santa Cruz, Calif.), phospho-Stat3 (Tyr 705) from Cell Signaling Technology (Beverly, Mass.). Proteins were visualized with peroxidase-coupled secondary antibodies using the enhanced chemiluminescence detection system (Amersham Pharmacia Biotech, Little Chalfont, United Kingdom).

[4] = test system: Stat3 transcriptional activity; experiment: APRE-driven luciferase reporter assay; format: cell-based; conditions: for Stat3-dependent transcription of luciferase, increase over control: TEL expression reduced by siRNA
From the text: Luciferase assays are used to verify that the Stat3-ER construct is transcriptionally active. For this purpose, a luciferase reporter gene driven by the acute-phase response element (APRE) of the alpha 2-macroglobulin gene, a target for Stat1 and Stat3, was used.
Cells (2×10^6 cells/6 well dish) were transfected with a reporter plasmid containing four copies of acute phase responsible element (APRE) upstream of the minimal junB promoter linked to the luciferase gene (T Hirano, EMBO Journal, 1996, 15, 3651-3658), together with the internal control plasmid pRL-SV40 from Promega (Madison, Wis.). Twenty-four hours after the transfection, cells were either left unstimulated or stimulated with OSM (PeproTechEC, London, United Kingdom), 4-hydroxytamoxifen (4HT; Sigma, St. Louis, Mo.) or a combination of 4HT/OSM for 24 hours. The preparation of cell extracts and measurement of luciferase activities were carried out using the Dual-Luciferase reporter assay system from Promega (Madison, Wis.) in an Autolumat LB 953 (Berthold Technologies, Wildbad, Germany). Changes in firefly luciferase activity were expressed relative to Renilla luciferase activity in the same sample.

[5] = biological target: Signal transducer and activator of transcription 3 (Stat3) (UniProt P40763); experiment: cell-based or functional assay
Stat3 = experiment: TEL-Stat3 interaction, immunoprecipitation from nuclear extracts; format: binding
Description: Since the TEL DNA-binding domain is not required for repression of Stat3 activity, this Example tests the possibility that TEL interacts directly with Stat3. Extracts from nuclear-enriched fractions were prepared from control or OSM-stimulated A375 cells. […] Endogenous TEL was present in Stat3 immunoprecipitates and the levels of TEL associating with Stat3 increased in OSM-treated compared to control-treated nuclear extracts. Conversely, Stat3 is present in a TEL-containing complex, pulled down through an immobilized GGM-containing oligonucleotide, which is a binding site for TEL.

TEL [6] = experiment: TEL expression in human cancer cell lines; format: cell-based
From the text: TEL is usually expressed as two protein isoforms corresponding to initiation of TEL mRNA translation at ATG codon 1 and 43 (TEL and TEL43). […] To ascertain if TEL is a natural target of Stat3, we examined its expression in human cancer cell lines in response to OSM or IL-6. […] However, TEL expression was unchanged in other cell lines, including the prostate cancer cells PC3 and LNCaP and MDA-MB-468 breast cancer cells, even though it was expected that Stat3 is activated in each of these cell lines by IL-6/OSM treatment.

Sequence of Signal transducer and activator of transcription 3 (Stat3) (P40763 2-770 limits assumed): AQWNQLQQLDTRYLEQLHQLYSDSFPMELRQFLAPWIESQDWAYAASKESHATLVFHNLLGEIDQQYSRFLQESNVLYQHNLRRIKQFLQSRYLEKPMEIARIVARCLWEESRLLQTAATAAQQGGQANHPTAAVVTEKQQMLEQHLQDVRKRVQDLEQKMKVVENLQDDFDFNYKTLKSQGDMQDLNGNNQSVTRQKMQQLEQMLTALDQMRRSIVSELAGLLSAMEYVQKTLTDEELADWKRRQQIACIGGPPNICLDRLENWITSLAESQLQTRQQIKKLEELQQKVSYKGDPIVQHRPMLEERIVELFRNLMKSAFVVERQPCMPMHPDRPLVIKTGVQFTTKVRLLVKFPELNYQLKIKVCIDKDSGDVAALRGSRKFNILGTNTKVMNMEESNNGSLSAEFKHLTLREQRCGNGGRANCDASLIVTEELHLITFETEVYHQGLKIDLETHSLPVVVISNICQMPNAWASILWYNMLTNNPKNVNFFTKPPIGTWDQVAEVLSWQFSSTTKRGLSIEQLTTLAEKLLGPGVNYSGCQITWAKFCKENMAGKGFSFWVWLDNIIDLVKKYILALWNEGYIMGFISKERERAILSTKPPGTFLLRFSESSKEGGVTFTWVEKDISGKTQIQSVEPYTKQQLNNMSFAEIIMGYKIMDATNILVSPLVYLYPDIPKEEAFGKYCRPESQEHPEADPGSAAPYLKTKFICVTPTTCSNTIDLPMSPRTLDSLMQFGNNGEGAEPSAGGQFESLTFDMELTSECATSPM

**Q.** Which “effect on repression of Stat3 activity by TEL” value ([1]; TSA 250 nM, TEL-transfected 4HT-stimulated Stat3ERA375 cells) does the source give for `CC(/C=C/C(=O)NO)=C\[C@@H](C)C(=O)c1ccc(N(C)C)cc1` [TSA, Trichostatin A, reference compound] here?
**A.** The value was “prevented the repression of Stat3 activity by TEL”.

**Q.** And the “effect on Stat3 mediated transcriptional activity” value ([1]; TSA 250 nM, pcDNA3.1-transfected cells, 4HT)?
**A.** The value was “had no effects”.

**Q.** Which “inhibition of cell proliferation in the presence of siRNA” value ([2]; about 40-45% with control siRNA) does the source give for “C/EBPdelta siRNA: siRNA duplex nt 844-864, SEQ ID NO:2 and SEQ ID NO:3 (chain 1 GCAGCUGCCCAGCCCGCCCTT; chain 2 GGGCGGGCUGGGCAGCUGTT; combined DNA/RNA strands, DNA positions not given here, further chemistry not given here)” here?
**A.** The value was “about 25%”.

**Q.** And the “reduction of the inhibition of A375 cell proliferation” value ([2]; average of three independent experiments, versus control siRNA)?
**A.** The value was “about 40%”.

**Q.** What about the “C/EBPdelta expression in the presence of siRNA” value (C/EBPdelta mRNA) of the same molecule?
**A.** The value was “significantly reduced expression”.

**Q.** With “TEL siRNA: siRNA nt 540-560, SEQ ID NO:4 and SEQ ID NO:5 (chain 1 CCCUCCCACCAUUGAACUGTT; chain 2 CAGUUCAAUGGUGGGAGGGTT; combined DNA/RNA strands, DNA positions not given here, further chemistry not given here)” as the molecule, how does the “anti-proliferative effects of Stat3 versus control LacZ siRNA treated cultures” value ([2]; 4HT and OSM treated Stat3ER A375 cells) read?
**A.** The value was “stronger”.

**Q.** And the “Stat3-mediated inhibition of A375 cell proliferation in the presence of TEL siRNA” value ([2]; about 28% without TEL siRNA)?
**A.** The value was “about 40%”.

**Q.** What about the “TEL expression in the presence of TEL siRNA” value (TEL [3]) of the same molecule?
**A.** Its value is “largely prevented; also recorded: strongly decreased”.

**Q.** What about the “Stat3-dependent transcription of luciferase, increase over control” value ([4]; induced by 4HT) of the same molecule?
**A.** Its value is about 16 fold.

**Q.** And the “Stat3-dependent transcription of luciferase, increase over control” value ([4]; induced by OSM)?
**A.** The value was about 18 fold.

**Q.** How did the Stat3 activity (APRE luciferase reporter) in response to OSM on overexpression of TEL [5] turn out when “TEL/Etv6 (ets variant gene 6; TEL oncogene) (from UniProt P41212 1-452)” was run?
**A.** Its Stat3 activity (APRE luciferase reporter) in response to OSM on overexpression of TEL is over 70 % reduction.

**Q.** Which results are given for “TEL: ets variant gene 6 (TEL oncogene) product, overexpressed by transfection”?
**A.** reduction in Stat3 activity by overexpression of TEL ([1]; in response to OSM, Stat3ER A375 cells and HEK293 cells): > 70%; interaction with Stat3 (Stat3): still interact with Stat3

**Q.** interleukin 6 [IL-6] was tested. Which TEL expression (TEL [6]; PC3, LNCaP prostate cancer cells and MDA-MB-468 breast cancer cells) did it give?
**A.** The TEL expression was “unchanged”.

**Q.** And the TEL expression (TEL [6]; T47D and SKBr-3 breast cancer cells, DU145 prostate carcinoma cells, HepG2 hepatoma-derived cells)?
**A.** Its TEL expression is “significantly increased”.

**Q.** What about the “cooperative effect with 4HT on luciferase activity” value ([4]; Stat3-ER-expressing A375 cells) of the same molecule?
**A.** The value was “same cooperative effect with 4HT”.

B1: TEL delta 442-452: TEL deletion mutant (protein)
chain: MSETPAQCSIKQERISYTPPESPVPSYASSTPLHVPVPRALRMEEDSIRLPAHLRLQPIYWSRDDVAQWLKWAENEFSLRPIDSNTFEMNGKALLLLTKEDFRYRSPHSGDVLYELLQHILKQRKPRILFSPFFHPGNSIHTQPEVILHQNHEEDNCVQRTPRPSVDNVHHNPPTIELLHRSRSPITTNHRPSPDPEQRPLRSPLDNMIRRLSPAERAQGPRPHQENNHQESYPLSVSPMENNHCPASSESHPKPSSPRQESTRVIQLMPSPIMHPLILNPRHSVDFKQSRLSEDGLHREGKPINLSHREDLAYMNHIMVSVSPPEEHAMPIGRIADCRLLWDYVYQLLSDSRYENFIRWEDKESKIFRIVDPNGLARLWGNHKNRTNMTYEKMSRALRHYYKLNIIRKEPGQRLLFRFMKTPDEIMSGRTDRLEHLESQE
**Q.** How did the “repression of 4HT- or OSM-induced Stat3 transcriptional activity” value ([1]; Stat3-ER-A375 cells and HEK 293 cells, 24 h) turn out when B1 was run?
**A.** Its value is “is not able to repress Stat3 activity”.
